Here are results for three molecules from patent US20140235649A1, “USE OF PHOSPHATASE INHIBITORS OR HISTONE DEACETYLASE INHIBITORS TO TREAT DISEASES CHARACTERIZED BY LOSS OF PROTEIN FUNCTION” (LIXTE BIOTECHNOLOGY, INC., priority 2011, published 2014).

One assay concerns ΔSDHB-L65P. The assay is described as follows: ΔSDHB-L65P protein half-life through CHX treatment, Western blot, HeLa cells. Type of assay: cell-based, human. As for the experimental part: Western blot analysis was performed as previously described with minor modifications (Zhuang et al, 2011). Microdissected tumor tissue and cell pellets were extracted for protein using RIPA lysis buffer supplemented with Halt proteinase inhibitor cocktail (Thermo Scientific, Rockford, Ill.). Protein was vortexed at 4° C. for 20 min and centrifuged in 12,000 g for 10 min at 4° C. Supernatant was collected and protein quantity was identified through a Bio-Rad (Hercules, Calif.) Protein Assay kit. Equal amount of proteins were separated on NuPAGE 4-12% Bis-Tris gel (Invitrogen, Carlsbad, Calif.) and transferred to PVDF membranes (Invitrogen). Membranes were blocked in 5% skim dried milk in PBST and blotted with primary antibody. Protein expression was identified through chemiluminescence kit (Thermo Scientific). The following antibodies were used: SDHA (1:1,000, Cell Signaling Technology, Beverly, Mass.), SDHB (1:1,000, Sigma-Aldrich, St. Louis Mo.), Flag (1:2,000, Origene, Rockville, Md.), Ubiquitin (1:1,000, Abcam, Cambridge, Mass.), HA (1:2,000, Origene), Hsp90 (1:1,000, Cell Signaling Technology) and β-Actin (1:1,000, Santa Cruz Biotechnology, Inc., Santa Cruz, Calif.).
HeLa cells were maintained in DMEM containing 10% FBS (Invitrogen). Cells were transfected with SDHB vectors by FuGENE 6 transfection reagent (Roche, Indianapolis, Ind.). Medium was changed 4 hours after transfection and cells were maintained 48 hours before cycloheximide (20 μg/mL, Sigma-Aldrich) treatment.
Ubiquitin-HA vector was described previously (Kamitani et al. (1997)). Human wild type SDHB gene was cloned into pCMV6-Entry vector (Origene). Hot spot missense mutations in SDHB related PHEOs/PGLs based on previous findings (Van Nederveen et al. (2006); Henderson et al. (2009); Pawlu et al. (2005)). Mutagenesis was performed based on wild type SDHB vector using a Quikchange Lightning Site-Directed Mutagenesis Kit (Agilent, Santa Clara, Calif.). For each mutant, the sequence of SDHB gene was verified through sequencing the entire coding region of the gene. Vectors were purified through PureLink HiPure Plasmid Maxiprep kit (Invitrogen) for transfection and cell free protein expression.

Another assay has as its system mutant SDHB protein. In words: Immunoprecipitation of mutant SDHB: ubiquitination and Hsp90 binding. The format is cell-based, human. The note with it: immunoprecipitated ΔSDHB-R49Q (FIG. 14E). The procedure:
Protein was extracted from cell cultures using IP lysis buffer with Halt proteinase inhibitor cocktail (Thermo Scientific). Four hundred microgram of total protein was precipitated with Flag antibody (1:200, Origene) using a DynaBeads Protein G immunoprecipitation kit (Invitrogen). Proteins were precipitated overnight at 4° C. and eluted for Western blot analysis.

Assay [1] relates to missense glucocerebrosidase. The note with it: previously found (REF); cited from earlier work.
The subject of a further assay is VHL protein. In words: VHL protein levels in tumor cells from VHL derived tumors (Examples 6-7). The settings on record: Example 6, versus untreated cells.
For another assay, the system named is SDHB protein. In words: SDHB protein levels in tumor cells from SDHB derived tumors (Examples 9-10). The settings on record: Example 9, versus untreated cells.
The next assay concerns ΔGBA-N370S. The assay is described as follows: Metabolic [35S] pulse chase assay, HeLa cells with ΔGBA-N370S vector. The settings on record: N370S mutant. Type of assay: cell-based, human. The procedure:
(§1) Human GBA gene was cloned into pCMV6-Entry vector (Origene; Rockville, Md.). Mutagenesis was performed using a QuikChange Lightning Site-directed mutagenesis kit (Agilent; Santa Clara, Calif.). Mutagenesis reaction was conducted using primers with N370S and L444P mutation sites. For each mutant, the sequence of GBA genes was verified by sequencing the entire coding regions.
(§2) Metabolic [^35S] pulse chase assay was performed as previously described with minor modifications (16). A total of 5×10^5 HeLa cells were transfected with GBA vectors through FuGene 6 transfection reagent (Roche; Indianapolis, Ind.). Cells were used for pulse chase assay 24 hr after transfection. Cells were starved in methionine-depleted medium for 15 min followed by 15 min labeling in methionine-free Delbecco's modified Eagle medium (DMEM) supplemented with 10% FBS and 0.2 mCi/mL [^35S]-methionine ([…] specific activity, Perkin Elmer). The cells were then chased in DMEM with 10% FBS and 3 mg/mL methionine. Cells were extracted for protein within various durations after radioactive labeling. Cells were lysed in RIPA lysis buffer containing with Halt proteinase inhibitor cocktail (Thermo; Waltham, Mass.). GBA proteins were purified through immunoprecipitation using 200 ug total lysate with Flag antibody (Origene; Rockville, Md.). Precipitated proteins were resolved on NuPAGE Novex 4-12% Bis-Tris Gel (Invitrogen; Carlesbad, Calif.) and measured by liquid scintillation counting. The gel was fixed and incubated in EN3HANCE (Perkin Elmer; Waltham, Mass.) for 45 min and dried for X-ray film exposure.

A further assay relates to ΔGBA-L444P. The assay is described as follows: Metabolic [35S] pulse chase assay, HeLa cells with ΔGBA-L444P vector. The note with it: L444P mutant. Type of assay: cell-based, human. The procedure:
as §1, §2

Assay [2] concerns beta-glucocerebrosidase (GBA). The assay is described as follows: GBA levels in human cells from Gaucher's disease type 1 / type 3 patients (Examples 2-4).

Entries after “also recorded” stand apart in the source; their conditions may differ.

With `O=C(CCCCCNC(=O)c1ccccc1S)Nc1ccccc1` [LB-201], in the assay with ΔSDHB-L65P (L65P mutant), the “degradation / loss of mutant SDHB protein” value is recorded as “slowed the degradation of mutant protein; also recorded: decreased the loss of mutant SDHB”. In the assay on mutant SDHB protein, the “Hsp90 binding to mutant SDHB” value was “also decreased” and the “SDHB mutant protein ubiquitination” value is “decreased SDHB mutant protein ubiquitination”. Besides, in assay [1], the “co-translational degradation of missense glucocerebrosidase” value is given as “protect missense glucocerebrosidase from co-translational degradation”. Also, in the assay on VHL protein, the VHL levels result is recorded as “significantly higher than in untreated cells” and the “degradation of VHL” value was “decreased degradation of VHL”. Besides, in the assay with SDHB protein, the SDHB levels result is on record as “significantly higher than in untreated cells” and the “degradation of SDHB” value is reported as “decreased degradation of SDHB”.

`CC1=C(O)C(=O)C=C2C1=CC=C1[C@@]2(C)CC[C@@]2(C)[C@@H]3C[C@](C)(C(=O)O)CC[C@]3(C)CC[C@]12C` [celastrol]: the “increase in radioactively labeled protein quantity” value in the assay on ΔGBA-N370S is 33%. The “increase in [35S]-GBA residue” value with ΔGBA-L444P was 104%. Also, the “SDHB protein remaining intact” value with ΔSDHB-L65P (L65P, after a 2 hr CHX treatment) is reported as “more than 50%”.

As for `CN1CCN(C(=O)C2C(C(=O)O)[C@H]3CC[C@@H]2O3)CC1` (stereo partly shown) [LB100], in assay [2] (Gaucher's disease type 1 and type 3 cells, 24 hours (Example 3, FIG. 1-3)), the “GBA levels / amount of GBA” value was “increased; also recorded: increased in all treatments, and the increase was not dose-dependent; also recorded: significantly higher than in untreated cells”. In addition, the GBA levels entry in assay [2] (Gaucher's disease type 3 cells, 24 hours (Example 2)) is “significantly higher than in untreated cells”.
